Measurements from the NIST ThermoML archive (doi:10.1016/j.fluid.2017.10.034).

Assay: xn = mol fraction of the nth substance listed
Conditions: Liquid, Vibrating tube method

[Cl-].[Cs+] [cesium chloride] + CO
mass density [kg/m3]
Conditions | 288.15 K | 293.15 K | 298.15 K | 308.15 K | 318.15 K
x1 = 0.0012 | 800.8 | 796.1 | 791.3 | 781.8 | 772.3
x1 = 0.0025 | 805.5 | 800.8 | 796 | 786.5 | 776.9
x1 = 0.0037 | 809.9 | 805.2 | 800.5 | 791 | 781.4
x1 = 0.0049 | 814.5 | 809.8 | 805.1 | 795.5 | 785.9

[Cl-].[Na+] [sodium chloride] + CO
mass density [kg/m3]
Conditions | x1 = 0.001 | x1 = 0.002 | x1 = 0.003 | x1 = 0.004 | x1 = 0.005 | x1 = 0.006 | x1 = 0.007
288.15 K | 797.4 | 798.9 | 800.1 | 801.4 | 802.9 | 804.1 | 805.7
293.15 K | 792.7 | 794.3 | 795.5 | 796.8 | 798.3 | 799.5 | 801.1
298.15 K | 788 | 789.6 | 790.8 | 792.1 | 793.7 | 794.9 | 796.4
308.15 K | 778.6 | 780.2 | 781.4 | 782.7 | 784.3 | 785.5 | 787.1
318.15 K | 769 | 770.7 | 771.9 | 773.3 | 774.8 | 776.1 | 777.7

[Cl-].[Cs+] [cesium chloride] + O
mass density [kg/m3]
Conditions | x1 = 0.0099 | x1 = 0.0196 | x1 = 0.0292 | x1 = 0.0385 | x1 = 0.0536 | x1 = 0.069
288.15 K | 1069.7 | 1137.3 | 1203.3 | 1266.2 | 1367 | 1466.9
293.15 K | 1068.4 | 1135.8 | 1201.6 | 1264.2 | 1364.6 | 1464.1
298.15 K | 1067 | 1134.1 | 1199.6 | 1262 | 1362.1 | 1461.3
308.15 K | 1063.5 | 1130.1 | 1195.2 | 1257.3 | 1356.7 | 1455.3
318.15 K | 1059.2 | 1125.5 | 1190.2 | 1252 | 1350.9 | 1448.6

[Cl-].[Na+] [sodium chloride] + O
mass density [kg/m3]
Conditions | x1 = 0.0099 | x1 = 0.0196 | x1 = 0.0291 | x1 = 0.0385 | x1 = 0.0476 | x1 = 0.0566 | x1 = 0.0654
288.15 K | 1022.2 | 1044.7 | 1065.8 | 1086.7 | 1107.4 | 1127.2 | 1147.1
293.15 K | 1021 | 1043.2 | 1064.1 | 1084.8 | 1105.4 | 1125 | 1144.8
298.15 K | – | 1041.6 | 1062.3 | 1082.8 | 1103.3 | 1122.7 | 1142.4
308.15 K | 1016.2 | 1037.8 | 1058.2 | 1078.5 | 1098.7 | 1118 | 1137.4
318.15 K | 1012.1 | 1033.5 | 1053.6 | 1073.7 | 1093.8 | 1112.9 | 1132.2
